From ChEMBL document CHEMBL3400058, “Synthesis, anticonvulsant activity and molecular modeling study of some new hydrazinecarbothioamide, benzenesulfonohydrazide, and phenacylacetohydrazide analogues of 4(3H)-quinazolinone” (Bioorg Med Chem Lett, 2015)

How the values were obtained:
Mus musculus [1] = assay: Anticonvulsant activity in mouse assessed as prolongation of convulsions onset time at 150 mg/kg, ip administered 20 mins prior to PTZ challenge relative to control; format: functional; details: route intraperitoneal
Mus musculus [2] = assay: Anticonvulsant activity in mouse assessed as protection against PTZ-induced convulsions at 150 mg/kg, ip administered 20 mins prior to PTZ challenge relative to control; format: functional; details: route intraperitoneal
Mus musculus [3] = organism: Mus musculus; assay: Protective index, ratio of TD50 for mouse to ED50 for anticonvulsant activity in mouse
Mus musculus [4] = assay: Anticonvulsant activity in mouse assessed as delay of death time at 150 mg/kg, ip administered 20 mins prior to PTZ challenge relative to control; format: functional; details: route intraperitoneal
Mus musculus [5] = assay: Anticonvulsant activity in mouse assessed as decrease in convulsion frequency at 150 mg/kg, ip administered 20 mins prior to PTZ challenge relative to control; format: functional; parameters: scale not given: the % may be the effect or the level left; details: route intraperitoneal
[6] = Therapeutic index, ratio of LD50 for mouse to ED50 for anticonvulsant activity in mouse; format: organism-based; details: in vivo, read-out: Ratio LD50/ED50
Mus musculus [7] = assay: Anticonvulsant activity in mouse assessed as delay of death time at 150 mg/kg, ip administered 20 mins prior to picrotoxin challenge relative to control; format: functional; details: route intraperitoneal
Mus musculus [8] = assay: Anticonvulsant activity in mouse assessed as prolongation of convulsions onset time at 150 mg/kg, ip administered 20 mins prior to picrotoxin challenge relative to control; format: functional; details: route intraperitoneal
Mus musculus [9] = assay: Anticonvulsant activity in mouse assessed as decrease in convulsion frequency at 150 mg/kg, ip administered 20 mins prior to picrotoxin challenge relative to control; format: functional; parameters: scale not given: the % may be the effect or the level left; details: route intraperitoneal
Mus musculus [10] = assay: Toxicity in mouse at 150 mg/kg, […] 20 mins prior to PTZ challenge relative to control; format: organism-based; parameters: dose 150 mg/kg; details: in vivo
Mus musculus [11] = assay: Anticonvulsant activity in mouse assessed as decrease in convulsion frequency at 50 mg/kg, ip administered 20 mins prior to PTZ challenge relative to control; format: functional; parameters: scale not given: the % may be the effect or the level left; details: route intraperitoneal
Mus musculus [12] = assay: Anticonvulsant activity in mouse assessed as prolongation of convulsions onset time at 50 mg/kg, ip administered 20 mins prior to PTZ challenge relative to control; format: functional; details: route intraperitoneal
Mus musculus [13] = assay: Anticonvulsant activity in mouse assessed as delay of death time at 50 mg/kg, ip administered 20 mins prior to PTZ challenge relative to control; format: functional; details: route intraperitoneal
Mus musculus [14] = assay: Anticonvulsant activity in mouse assessed as protection against PTZ-induced convulsions at 50 mg/kg, ip administered 20 mins prior to PTZ challenge relative to control; format: functional; details: route intraperitoneal

Compound	Activity (Mus musculus [1])	Activity (Mus musculus [4])	Activity (Mus musculus [5])	also measured
O=C(CCc1ccccc1)NNC(=O)CSc1nc2ccc(Cl)cc2c(=O)n1Cc1ccccc1	685%	254%	74%	Activity (Mus musculus [2]): 100%; Ratio TD50/ED50 (Mus musculus [3]): 4.6; selectivity ratio [6]: 9.8
CC(=O)NNC(=O)CSc1nc2ccc(Cl)cc2c(=O)n1-c1ccccc1	186%	216%	48%	–
Cc1ccc(S(=O)(=O)NNC(=O)CSc2nc3ccc(Cl)cc3c(=O)n2-c2ccccc2)cc1	43%	40%	48%	–
CSc1nc2ccc(Cl)cc2c(=O)n1Cc1ccccc1	114%	5%	61%	Activity (Mus musculus [7]): 0%; Activity (Mus musculus [8]): 36%; Activity (Mus musculus [9]): 91%
CCOC(=O)CSc1nc2ccc(Cl)cc2c(=O)n1-c1ccccc1	0%	–	0%	–
O=C(CSc1nc2ccc(Cl)cc2c(=O)n1-c1ccccc1)NNC(=O)c1ccccc1	114%	0%	87%	–
CCCCC(=O)NNC(=O)CSc1nc2cc(OC)c(OC)cc2c(=O)n1Cc1ccccc1	0%	–	0%	–
COc1cc2nc(SCC(=O)NNS(=O)(=O)c3ccc(C)cc3)n(Cc3ccccc3)c(=O)c2cc1OC	43%	–	0%	–
CC(=O)NNC(=O)CSc1nc2ccc(Cl)cc2c(=O)n1Cc1ccccc1	–	303%	–	Activity (Mus musculus [7]): 50%; Activity (Mus musculus [8]): 63%; Activity (Mus musculus [2]): 100%; Ratio TD50/ED50 (Mus musculus [3]): 8.7; Activity (Mus musculus [9]): 60%; selectivity ratio [6]: 9.7
CCC(=O)NNC(=O)CSc1nc2ccc(Cl)cc2c(=O)n1Cc1ccccc1	43%	0%	74%	–
COc1cc2nc(SCC(=O)NNC(=O)Cc3ccccc3)n(Cc3ccccc3)c(=O)c2cc1OC	186%	58%	68%	Activity (Mus musculus [7]): 17%; Activity (Mus musculus [8]): 18%; Activity (Mus musculus [9]): 97%
O=C(CSc1nc2ccc(Cl)cc2c(=O)n1-c1ccccc1)NNC(=S)NCc1ccccc1	114%	145%	0%	–
COc1cc2nc(SCC(=O)NNC(=S)NCc3ccccc3)n(Cc3ccccc3)c(=O)c2cc1OC	43%	32%	38%	Activity (Mus musculus [7]): 22%; Activity (Mus musculus [8]): 78%; Activity (Mus musculus [9]): 66%
O=C(CSc1nc2ccc(Cl)cc2c(=O)n1Cc1ccccc1)NNC(=S)Nc1ccccc1	0%	–	0%	–
COc1cc2nc(SCC(=O)NNC(=S)Nc3ccccc3)n(Cc3ccccc3)c(=O)c2cc1OC	150%	5%	81%	Activity (Mus musculus [7]): 25%; Activity (Mus musculus [8]): 4%; Activity (Mus musculus [9]): 89%
CCCC(=O)NNC(=O)CSc1nc2ccc(Cl)cc2c(=O)n1Cc1ccccc1	78%	14%	61%	Activity (Mus musculus [8]): 0%
COc1cc2nc(SCC(=O)NNC(C)=O)n(Cc3ccccc3)c(=O)c2cc1OC	0%	–	0%	–
CCCC(=O)NNC(=O)CSc1nc2ccc(Cl)cc2c(=O)n1-c1ccccc1	43%	75%	82%	–

Compound	Activity (Mus musculus [1])	Activity (Mus musculus [4])	Activity (Mus musculus [5])	also measured
CCC(=O)NNC(=O)CSc1nc2cc(OC)c(OC)cc2c(=O)n1Cc1ccccc1	471%	216%	81%	Activity (Mus musculus [7]): 8%; Activity (Mus musculus [8]): 11%; Activity (Mus musculus [2]): 100%; Ratio TD50/ED50 (Mus musculus [3]): 4.1; Activity (Mus musculus [9]): 79%; selectivity ratio [6]: 5.1
CCOC(=O)CSc1nc2ccc(Cl)cc2c(=O)n1Cc1ccccc1	0%	–	0%	Activity (Mus musculus [7]): 17%; Activity (Mus musculus [8]): 5%; Activity (Mus musculus [9]): 25%
O=C(CCc1ccccc1)NNC(=O)CSc1nc2ccc(Cl)cc2c(=O)n1-c1ccccc1	43%	–	0%	–
COc1cc2nc(SC)n(Cc3ccccc3)c(=O)c2cc1OC	–	–	–	Activity (Mus musculus [10]): Toxic
CSc1nc2ccc(Cl)cc2c(=O)n1-c1ccccc1	114%	44%	0%	–
Cc1ccc(S(=O)(=O)NNC(=O)CSc2nc3ccc(Cl)cc3c(=O)n2Cc2ccccc2)cc1	43%	47%	74%	–
O=C(CSc1nc2ccc(Cl)cc2c(=O)n1Cc1ccccc1)NNC(=O)Cc1ccccc1	43%	47%	61%	–
O=C(CSc1nc2ccc(Cl)cc2c(=O)n1Cc1ccccc1)NNC(=S)NCc1ccccc1	471%	101%	61%	Activity (Mus musculus [7]): 25%; Activity (Mus musculus [8]): 15%; Activity (Mus musculus [9]): 39%
O=C(CSc1nc2ccc(Cl)cc2c(=O)n1-c1ccccc1)NNC(=O)Cc1ccccc1	–	–	–	Activity (Mus musculus [11]): 0%; Activity (Mus musculus [12]): 43%
CCCC(=O)NNC(=O)CSc1nc2cc(OC)c(OC)cc2c(=O)n1Cc1ccccc1	114%	58%	0%	–
CCC(=O)NNC(=O)CSc1nc2ccc(Cl)cc2c(=O)n1-c1ccccc1	–	–	–	Activity (Mus musculus [13]): 636%; Activity (Mus musculus [14]): 100%; Activity (Mus musculus [11]): 74%; Activity (Mus musculus [12]): 1471%; Ratio TD50/ED50 (Mus musculus [3]): 8.5; selectivity ratio [6]: 24.6
COc1cc2nc(SCC(=O)NNC(=O)CCc3ccccc3)n(Cc3ccccc3)c(=O)c2cc1OC	114%	0%	81%	–
COc1cc2nc(SC)n(-c3ccccc3)c(=O)c2cc1OC	35%	461%	0%	–
CCCCC(=O)NNC(=O)CSc1nc2ccc(Cl)cc2c(=O)n1Cc1ccccc1	0%	–	0%	–
O=C(CSc1nc2ccc(Cl)cc2c(=O)n1Cc1ccccc1)NNC(=O)c1ccccc1	185%	75%	23%	–
COc1cc2nc(SCC(=O)NNC(=O)c3ccccc3)n(Cc3ccccc3)c(=O)c2cc1OC	0%	–	0%	–
CCCCC(=O)NNC(=O)CSc1nc2ccc(Cl)cc2c(=O)n1-c1ccccc1	114%	47%	87%	–
CCCC(CCC)C(=O)[O-].[Na+] [VALPROATE SODIUM]	–	–	–	Activity (Mus musculus [14]): 100%
